Several values for one entry are separate records, joined by “and”; a condition that tells them apart may be missing. Identical values can stand only once. Like-named read-outs stand apart in the source and are kept apart here.
How the values were obtained:
TRPC6 channel = target: T1, TRPC6 channel (Homo sapiens, UniProt Q9Y210); test: Ion channel profiling at Charles River: TRPC6; assay type: cell-based; details: expressed in HEK293 cells; read-out: ESTIMATED IC50
T1 construct: host or cells: HEK293 cells
T1 sequence (Q9Y210 whole entry): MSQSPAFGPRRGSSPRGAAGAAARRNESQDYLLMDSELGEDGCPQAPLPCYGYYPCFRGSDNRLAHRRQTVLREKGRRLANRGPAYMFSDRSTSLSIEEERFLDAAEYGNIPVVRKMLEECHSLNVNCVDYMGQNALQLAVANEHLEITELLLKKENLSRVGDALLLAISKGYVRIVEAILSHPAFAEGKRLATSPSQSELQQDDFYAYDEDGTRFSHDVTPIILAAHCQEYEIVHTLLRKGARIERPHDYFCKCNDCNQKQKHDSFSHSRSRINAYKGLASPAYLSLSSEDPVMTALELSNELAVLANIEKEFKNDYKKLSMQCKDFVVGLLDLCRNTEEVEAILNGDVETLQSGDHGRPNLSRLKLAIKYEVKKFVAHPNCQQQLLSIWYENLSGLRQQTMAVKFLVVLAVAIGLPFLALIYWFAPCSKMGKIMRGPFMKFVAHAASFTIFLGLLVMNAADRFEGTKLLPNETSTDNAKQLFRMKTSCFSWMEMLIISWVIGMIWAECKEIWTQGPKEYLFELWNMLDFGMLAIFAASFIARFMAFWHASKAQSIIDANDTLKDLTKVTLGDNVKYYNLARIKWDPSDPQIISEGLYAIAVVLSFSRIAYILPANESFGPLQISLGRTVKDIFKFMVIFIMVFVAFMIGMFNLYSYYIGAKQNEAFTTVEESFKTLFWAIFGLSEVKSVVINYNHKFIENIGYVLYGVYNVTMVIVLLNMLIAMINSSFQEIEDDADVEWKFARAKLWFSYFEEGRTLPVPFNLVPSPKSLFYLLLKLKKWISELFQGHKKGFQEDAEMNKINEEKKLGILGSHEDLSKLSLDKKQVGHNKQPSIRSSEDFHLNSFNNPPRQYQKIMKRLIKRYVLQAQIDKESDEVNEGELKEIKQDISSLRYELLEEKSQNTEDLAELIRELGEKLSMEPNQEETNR
Procedure: (§1) 1.4.3 Ion Channel Profiling at Charles River
(§2) Table S9. Compound 24 was tested against the following ion channels at Charles River Laboratories. […]
(§3) ScreenPatch Assay Kv1.3 potassium channel (human KCNA3 gene) expressed in CHO […]
(§4) FLIPR Assay expressed in HEK293 cells
(§5) GABAA α5/β3/γ2 ionotropic receptor (human GABRA5, GABRB3, >30 and GABRG2 genes, expressed in HEK293 cells […]
TRPC6 channel (human TRPC6 gene) expressed in HEK293 cells >30 […]
(§6) An increase in the number of colonies of at least two-fold over baseline (mean + SD of the vehicle control) and a dose response indicate a positive response. An […]
(§7) different from the vehicle control.
(§8) Where indicated, S9 fraction from the livers of Aroclor 1254-treated rats were included in the incubation at a final concentration of 4.5%. A NADPH-regenerating system was also included to ensure a steady supply of reducing equivalents.

[1] = In vivo PK study, IP, SC and PO; details: male, CD-1, mouse, plasma, 20 mg/kg
Procedure: For pharmacokinetic experiments via the intraperitoneally (IP), subcutaneously (SC) and perorally
(PO) route 4 weeks old outbred male CD-1 mice (Charles River, Netherlands) were used.
were administered 24 at 20 mg/kg intraperitoneally (IP), subcutaneously (SC) and perorally (PO).
About 20 μL of whole blood was collected serially from the lateral tail vein at time points t = 0.25
(only IP and SC), 0.5, 1, 2, 4, and 8 h post administration.
was collected from the heart. Whole blood was collected into Eppendorf tubes coated with 0.5 M EDTA and immediately spun down at 13,000 rpm for 10 min at 4 °C. The plasma was transferred into
a new Eppendorf tube and then stored at −80 °C until analysis.

TRPA1 channel = target: T2, TRPA1 channel (Homo sapiens, UniProt O75762); test: Ion channel profiling at Charles River: TRPA1; assay type: cell-based; details: expressed in CHO cells; read-out: ESTIMATED IC50
T2 construct: host or cells: CHO cells
T2 sequence (O75762 whole entry): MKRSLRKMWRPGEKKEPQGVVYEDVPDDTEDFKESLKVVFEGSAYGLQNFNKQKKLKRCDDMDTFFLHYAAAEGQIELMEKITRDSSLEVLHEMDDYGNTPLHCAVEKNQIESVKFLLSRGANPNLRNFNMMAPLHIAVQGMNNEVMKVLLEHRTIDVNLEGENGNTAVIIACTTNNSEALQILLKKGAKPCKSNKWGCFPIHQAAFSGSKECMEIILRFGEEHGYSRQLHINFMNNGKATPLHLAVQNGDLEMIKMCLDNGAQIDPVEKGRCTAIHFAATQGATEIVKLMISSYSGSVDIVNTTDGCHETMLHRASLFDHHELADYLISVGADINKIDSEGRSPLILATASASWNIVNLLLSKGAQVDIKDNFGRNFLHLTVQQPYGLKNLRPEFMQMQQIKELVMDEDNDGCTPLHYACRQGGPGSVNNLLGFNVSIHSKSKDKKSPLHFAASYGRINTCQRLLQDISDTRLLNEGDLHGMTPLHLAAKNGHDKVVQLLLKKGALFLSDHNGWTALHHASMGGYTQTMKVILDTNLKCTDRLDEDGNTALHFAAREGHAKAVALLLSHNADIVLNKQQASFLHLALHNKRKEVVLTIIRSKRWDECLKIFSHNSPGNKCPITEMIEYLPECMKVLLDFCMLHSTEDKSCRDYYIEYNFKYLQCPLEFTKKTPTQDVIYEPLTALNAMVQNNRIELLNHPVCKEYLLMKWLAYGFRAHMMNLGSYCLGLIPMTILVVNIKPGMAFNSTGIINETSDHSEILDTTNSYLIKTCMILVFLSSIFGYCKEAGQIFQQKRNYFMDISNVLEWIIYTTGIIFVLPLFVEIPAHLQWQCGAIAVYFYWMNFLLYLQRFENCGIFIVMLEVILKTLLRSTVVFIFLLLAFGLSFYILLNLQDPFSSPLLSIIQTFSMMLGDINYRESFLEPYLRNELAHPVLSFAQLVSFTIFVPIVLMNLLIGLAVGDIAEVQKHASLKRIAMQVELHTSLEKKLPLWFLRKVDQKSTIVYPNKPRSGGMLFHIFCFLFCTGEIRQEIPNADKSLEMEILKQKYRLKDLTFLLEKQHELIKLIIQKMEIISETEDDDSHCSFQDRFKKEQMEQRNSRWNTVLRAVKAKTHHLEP
Procedure: as §1, §2, §3, §4, §5
TRPA1 channel (human TRPA1 gene) expressed in CHO cells >30 […]
as §6, §7, §8

TRPV1 channel = target: T3, TRPV1 channel (Homo sapiens, UniProt Q8NER1); test: Ion channel profiling at Charles River: TRPV1; assay type: cell-based; details: expressed in HEK293 cells; read-out: ESTIMATED IC50
T3 construct: host or cells: HEK293 cells
T3 sequence (Q8NER1 whole entry): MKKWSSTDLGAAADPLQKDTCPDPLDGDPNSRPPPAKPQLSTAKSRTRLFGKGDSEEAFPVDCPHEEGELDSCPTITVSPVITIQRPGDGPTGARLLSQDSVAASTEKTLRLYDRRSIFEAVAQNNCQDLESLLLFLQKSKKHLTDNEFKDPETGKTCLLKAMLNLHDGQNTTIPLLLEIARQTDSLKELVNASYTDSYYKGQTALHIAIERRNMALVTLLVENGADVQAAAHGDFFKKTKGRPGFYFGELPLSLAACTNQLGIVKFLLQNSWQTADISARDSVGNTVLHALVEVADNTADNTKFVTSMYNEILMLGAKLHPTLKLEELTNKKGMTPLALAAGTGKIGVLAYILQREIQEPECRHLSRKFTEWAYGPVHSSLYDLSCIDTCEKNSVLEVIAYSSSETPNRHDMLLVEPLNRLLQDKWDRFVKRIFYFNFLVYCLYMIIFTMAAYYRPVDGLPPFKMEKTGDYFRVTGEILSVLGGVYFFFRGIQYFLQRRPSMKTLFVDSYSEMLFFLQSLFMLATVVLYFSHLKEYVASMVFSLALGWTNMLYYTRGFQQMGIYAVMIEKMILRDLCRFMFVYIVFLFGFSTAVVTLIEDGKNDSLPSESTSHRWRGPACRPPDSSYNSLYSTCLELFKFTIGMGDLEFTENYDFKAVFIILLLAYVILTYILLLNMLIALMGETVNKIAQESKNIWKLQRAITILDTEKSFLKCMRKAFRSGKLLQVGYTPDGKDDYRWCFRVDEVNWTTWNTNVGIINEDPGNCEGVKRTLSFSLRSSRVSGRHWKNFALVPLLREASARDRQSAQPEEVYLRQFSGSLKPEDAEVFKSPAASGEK
Procedure: as §1, §2, §4, §5
TRPV1 channel (human TRPV1 gene) expressed in HEK293 cells >30 […]
as §6, §7, §8

[2] = target: T4, hKv1.5 potassium channels (Homo sapiens, UniProt P22460); test: Ion channel profiling at Charles River: hKv1.5; assay type: cell-based
T4 construct: host or cells: CHO cells
T4 sequence (P22460 whole entry): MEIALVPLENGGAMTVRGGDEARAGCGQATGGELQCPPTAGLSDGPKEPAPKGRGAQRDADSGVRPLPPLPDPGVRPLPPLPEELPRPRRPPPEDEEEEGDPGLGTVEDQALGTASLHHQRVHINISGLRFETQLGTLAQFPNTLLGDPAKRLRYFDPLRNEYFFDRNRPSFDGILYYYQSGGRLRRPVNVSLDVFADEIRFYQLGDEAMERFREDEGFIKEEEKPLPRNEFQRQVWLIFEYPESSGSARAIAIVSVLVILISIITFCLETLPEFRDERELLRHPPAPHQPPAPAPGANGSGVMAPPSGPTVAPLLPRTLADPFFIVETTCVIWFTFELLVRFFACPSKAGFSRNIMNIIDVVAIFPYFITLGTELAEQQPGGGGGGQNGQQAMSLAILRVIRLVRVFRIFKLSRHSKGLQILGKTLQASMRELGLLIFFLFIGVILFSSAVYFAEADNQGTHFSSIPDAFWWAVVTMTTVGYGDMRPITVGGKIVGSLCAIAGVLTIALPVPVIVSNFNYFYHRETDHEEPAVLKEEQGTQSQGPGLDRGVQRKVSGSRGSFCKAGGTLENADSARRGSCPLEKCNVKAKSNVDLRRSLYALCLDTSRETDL
Procedure: as §1, §2
FASTPatch Assay IK (KCa3.1) calcium-activated potassium channel (human KCNN4 >30 gene) expressed in CHO cells
Cloned hKv1.5 potassium channels (encoded by the human 32.6
KCNA5 gene, expressed in CHO cells) […]
as §4
GABAA α5/β3/γ2 ionotropic receptor (human GABRA5, GABRB3, >30 and GABRG2 genes, expressed in HEK293 cells

[3] = test system: Pseudomonas aeruginosa strain PA14; test: Alkylquinolone quantification, strain PA14; assay type: cell-based
Procedure: 1.2.2 Pyocyanin assay in Pseudomonas aeruginosa
Inhibition of pyocyanin biosynthesis of compounds was measured spectrophotometrically as previously described.[2] Pseudomonas aeruginosa PA14 was grown in rich medium for 16 h under agitation with and without compound. Pyocyanin was extracted from cultures with chloroform, then re-extracted with 0.2 M HCl and quantified photometrically (520 nm). IC50 values were determined from dose-response curves of compounds using at least six different concentrations and fitting with non-linear regression analysis (OriginPro 2017–2020, Originlab Corporation).
1.2.3 Alkylquinolone quantification
Inhibition of alkylquinolone (AQ) signal molecule biosynthesis of compound 24 was analyzed via LC-ESI-MS/MS. Extracellular concentrations of the AQs PQS (2-heptyl-3-hydroxy-4-quinolone), HHQ (2-heptyl-4-quinolone), HQNO (N-oxo-2-heptyl-4-Hydroxyquinoline), 2-AA (2-aminoacetophenone) were measured from supernatants of cultures incubated with or without compound for 17 h. 5,6,7,8-Tetradeutero-2-heptyl-4(1H)-quinolone (HHQ-d4) was added as internal standard before sample preparation. IC50 values were calculated according to the procedure of the pyocyanin assay (see above). LC-ESI-MS/MS conditions were as follows: Dionex Ultimate 3000 HPLC instrument parameters: Zorbax Eclipse XDB 80 Å C18 5 µm 4.6 x 50 mm (Agilent, Santa Clara, CA, USA); eluent A – H2O with 0.1% trifluoroacetic acid (TFA), 0.1% pentafluoropropionic acid (PFPA), 0.1% heptafluorobutyric acid (HFBA); eluent B – acetonitrile with 0.1% TFA, 0.1% PFPA, 0.1% HFBA; isocratic 50% A; flow – 0.7 mL/min. TSQ Quantum Access Max (Thermo Fisher Scientific, Waltham, MA, USA) instrument parameters: Spray voltage 3500 V, vaporizer temperature 370 °C, sheath gas pressure 35 psi, aux gas pressure 30 psi, capillary temperature 270 °C, collision pressure 1.5 mTorr, positive ionization mode. For AQ analyte reaction monitoring parameters please see Table S1.
Table S1. LC-ESI-MS/MS reaction monitoring parameters of AQ analytes in positive ionization mode. […]
Six replicates per sample were distributed evenly across the plate, with every row containing one replicate of each sample. The well plate was covered with the peg lid. One layer of parafilm was wrapped around the biofilm inoculator. The inoculator was incubated at 37 °C, static for 24 h with a beaker of H2O ensuring humidity. Alternatively, the plate was incubated using only LB for 8 h prior to addition of DMSO/24 to give 1% DMSO, followed by another 16 h incubation under the same […]
After 24 h, the plate was removed from the incubator and the peg lid was transferred to a fresh 96 well plate (Nunc U bottom, Thermo Fisher, Dreieich, Germany) containing the respective target

[4] = target: T5, Potassium Channel hERG (human) (Homo sapiens, UniProt Q12809); test: Cerep panel binding assay; details: 10 µM, [3H] Dofetilide
T5 construct: purchased Eurofins Pharma Discovery (Cerep) SafetyScreen44 Panel, ITEM P270
T5 sequence (Q12809 whole entry): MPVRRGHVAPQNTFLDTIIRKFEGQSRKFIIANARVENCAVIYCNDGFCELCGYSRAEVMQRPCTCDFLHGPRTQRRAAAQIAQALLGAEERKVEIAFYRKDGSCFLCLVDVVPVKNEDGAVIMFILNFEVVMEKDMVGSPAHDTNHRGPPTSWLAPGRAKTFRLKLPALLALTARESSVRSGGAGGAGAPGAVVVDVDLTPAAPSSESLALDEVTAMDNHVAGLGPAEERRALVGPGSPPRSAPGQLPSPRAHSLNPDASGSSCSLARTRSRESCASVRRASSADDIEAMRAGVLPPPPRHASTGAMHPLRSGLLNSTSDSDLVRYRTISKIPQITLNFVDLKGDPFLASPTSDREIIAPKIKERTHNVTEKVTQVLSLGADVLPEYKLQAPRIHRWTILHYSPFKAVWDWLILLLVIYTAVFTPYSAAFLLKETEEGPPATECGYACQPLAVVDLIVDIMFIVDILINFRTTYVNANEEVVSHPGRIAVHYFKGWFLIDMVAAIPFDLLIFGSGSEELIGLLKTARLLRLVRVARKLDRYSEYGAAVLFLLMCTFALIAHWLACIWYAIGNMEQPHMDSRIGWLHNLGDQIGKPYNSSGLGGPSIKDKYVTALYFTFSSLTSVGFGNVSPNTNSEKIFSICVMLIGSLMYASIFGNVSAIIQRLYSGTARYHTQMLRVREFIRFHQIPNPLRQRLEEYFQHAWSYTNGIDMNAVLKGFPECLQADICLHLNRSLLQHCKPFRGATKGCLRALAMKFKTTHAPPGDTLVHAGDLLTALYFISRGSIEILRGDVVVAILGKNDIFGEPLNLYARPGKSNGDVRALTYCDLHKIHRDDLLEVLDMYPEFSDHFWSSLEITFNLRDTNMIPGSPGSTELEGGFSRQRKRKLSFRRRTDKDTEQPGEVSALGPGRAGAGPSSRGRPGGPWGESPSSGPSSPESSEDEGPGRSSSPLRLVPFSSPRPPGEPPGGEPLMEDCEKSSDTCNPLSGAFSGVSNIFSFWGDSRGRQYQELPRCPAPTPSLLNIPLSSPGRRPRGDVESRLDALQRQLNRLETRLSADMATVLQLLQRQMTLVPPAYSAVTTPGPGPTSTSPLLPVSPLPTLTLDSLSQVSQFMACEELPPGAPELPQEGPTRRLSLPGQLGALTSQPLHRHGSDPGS
Procedure: 1.4 Safety Pharmacology of Compound 24
1.4.1 Cerep panel (Eurofins)
Compound 24 was further profiled for its off-target interactions against a panel of 44 targets. The
screening was done by Eurofins Pharma Discovery within the SafetyScreen44 Panel (Cerep, ITEM
P270). In all assays binding/functional inhibition was determined at 10 µM.
Table S6. […]
Potassium Channel hERG (human) [3H] […]

CC(C)Oc1ccc(-c2ncc(CNc3ccnc(C(F)(F)F)c3)cn2)cc1Cl [Compound 24]
IC50 (TRPC6 channel): > 30000 nM | bioavailability ([1]; intraperitoneal): ~36% | AUC(0-t) ([1]; ip): 557 µg·h/mL | CL/F ([1]; ip): 1.7 ± 1.8 mL/min/kg | Cmax ([1]; ip): 65.8 µg/mL | Tmax ([1]; ip): 1 h | Vd/F ([1]; ip): 0.25 ± 0.3 L/kg | bioavailability ([1]; ip): 36.1% | half-life ([1]; ip): 1.68 h | CL/F ([1]; po): 1.58 ± 0.4 mL/min/kg | Cmax ([1]; po): 45.6 µg/mL | Tmax ([1]; po): 0.83 ± 0.2 h | Vd/F ([1]; po): 0.25 L/kg | bioavailability ([1]; po): 13.8% | half-life ([1]; po): 1.9 ± 0.5 h | AUC(0-t) ([1]; sc): 363 µg·h/mL | CL/F ([1]; sc): 0.93 ± 0.1 mL/min/kg | Tmax ([1]; sc): 2 h | Vd/F ([1]; sc): 0.12 L/kg | bioavailability ([1]; sc): 23.5% | half-life ([1]; sc): 1.51 h | IC50 (TRPA1 channel): > 30000 nM | IC50 (TRPV1 channel): > 30000 nM | IC50 ([2]; expressed in CHO cells, read-out: ESTIMATED IC50): 32600 nM | IC50 ([2]; read-out: hKv1.5 functional inhibition IC50): ~30000 nM | IC50 ([3]; PA14, 17 h, read-out: IC50 PA14, 2‐AA biosynthesis): 386 nM | IC50 ([3]; PA14, 17 h, read-out: IC50 PA14, HHQ biosynthesis): 233 nM | IC50 ([3]; PA14, 17 h, read-out: IC50 PA14, HQNO biosynthesis): 347 nM | IC50 ([3]; PA14, 17 h, read-out: IC50 PA14, PQS biosynthesis): 349 nM | IC50 ([3]; PA14, read-out: IC50 values for individual AQs): 160 to 453 nM | BINDING (%) [4]: 73.1% and > 50%

Source: paper PMC9929129, “Towards Translation of PqsR Inverse Agonists: From In Vitro Efficacy Optimization to In Vivo Proof‐of‐Principle” (Advanced Science, 2023)
